Experimental data from patent publication US8455435B2, “Remedies for ischemia” (Ludwig-Maximilians-Universitat Munchen, priority 2006, dated 2013).
Values joined by “and” are separate entries in the source; they are usually repeats but may differ in a detail not shown here. Equal values may be shown once.

Tests used:
myocardial function = test: Pressure volume relations in vivo (conductance catheter) after MI, PTH treatment; set-up: species or system C57BL/6 mice
Procedure: (§1) Myocardial infarction was induced in male C57BL/6 mice 8-12 weeks of age by surgical occlusion of the left anterior descending artery (LAD) through a left anterolateral approach. Mice were anesthetized by intraperitoneal injection of a mixture of 100 mg/kg ketamine (Sigma Chemical Co., St. Louis, Mo.) and 5 mg/kg Xylazine (Sigma), intubated and artificially ventilated by a mouse ventilator (HUGO SACHS, March, Germany) with 200 strokes/min and 200 μl/stroke. Animal care and all experimental procedures were performed in strict accordance to the German and National Institutes of Health animal legislation guidelines and were approved by the local animal care and use committees.
(§2) After occlusion of the LAD, mice were divided into the following groups 1) subcutaneous administration of saline daily for 5 days, sacrificed at day 6 (n=10) and day 30 (n=15); 2) administration of rat PTH (1-34) daily for 5 and 14 consecutive days (80 μg/kg/d s.c., Bachem), sacrificed at day 6 (n=9) and day 30 (n=15); 3) sham operated animals sacrificed at day 30 (n=5), and not operated control animals receiving saline (n=6) sacrificed at day 6 and at day 30. All animals received BrdU ([…]) for 5 consecutive days. BrdU and cytokine treatment were started 12-24 hours after LAD occlusion.
For evaluation of pressure-volume relationships in vivo, surviving mice of the group 1) MI day 6 (n=6) and day 30 (n=6), 2) MI+PTH day 6 (n=6) and day 30 (n=6), and 3) sham (n=5) and control (n=6) animals were anesthetized with thiopental (100 mg/kg, i.p.), intubated and ventilated (MiniVent, HUGO SACHS, Freiburg, Germany). After catheterization via the right carotid artery an impedance-micromanometer catheter (Millar Instruments, Houston, Tex.) was introduced into the left ventricle. Raw conductance volumes were corrected for parallel conductance by the hypertonic saline dilution method. For absolute volume measurements, the catheter was calibrated with known volumes of heparin treated mouse blood. Pressure-volume signals were recorded at steady state and during transient preload reduction achieved by vena cava occlusion to obtain values independent of cardiac afterload^45. Data analyses were performed as previously described^44 using PVAN analysis software (HUGO SACHS, March, Germany).

infarcted left ventricle = test: Histology: infarct size, wall thickness, infarct composition after MI, PTH treatment; type: in vivo, C57BL/6 mice; conditions: for LV-infarct size (area of necrosis and granulation tissue): day 6, % of total LV area
Procedure: as §1, §2
At day 6 (n=10) and day 30 (n=10), hearts were excised. After fixation in 4% phosphate buffered formalin the hearts were cut transversally into 2 mm thick slices and embedded in paraffin. 4 μm thick sections were cut and mounted on positively charged glass slides. Standard histological procedures (hematoxilin/eosin and Masson trichrome) and immunostaining (see below) were performed.
Infarct size was determined as area of infarction (Al) correlated to the area of the left ventricle (including LV-septum) in four different slices from the base to the apex of a heart. Total infarct size was calculated by multiplication of the mean percentage value of the circular infarct area with the quotient: vertical extension of the infarct area/total ventricular extension. Wall thickness was measured by taking the average length of five segments along radii from the centre of the left ventricle through the thinnest points of the free LV wall and the septal wall. All studies were performed by a blinded pathologist.

[1] = system: CD45/Sca-1 and CD45/CD34 positive stem cells; test: PTH induced migration of CD45+ stem cells to the ischemic heart; type: in vivo, mice; conditions: 48 hours after myocardial ischemia
SDF-1 = SDF-1 expression in ischemic myocardium after PTH treatment; type: in vivo, mice; conditions: 48 hours after PTH treatment
G-CSF = G-CSF serum level by ELISA after PTH; type: in vivo, C57BL/6 mice
Procedure: (§3) Mice were divided into the following groups: 1) administration of saline daily for 6 days, sacrificed at day 7 (n=6). 2) administration of PTH (Bachem) daily for 6 consecutive days (80 μg per kg body weight per day, intraperitoneally), sacrificed at day 7 (n=6). 3) administration of PTH daily for 14 consecutive days, sacrificed at day 15 (n=6). 4) administration of G-CSF (Amgen Biologicals) daily for 5 consecutive days (200 μg per kg body weight per day, intraperitoneally), sacrificed at day 6 (n=6).
G-CSF and SCF serum levels were determined by ELISA (Mouse G-CSF and Mouse SCF, RayBiotech).

[2] = system: CD45+/CD34+ and CD45+/CD34- cell populations in bone marrow; test: Flow cytometry of bone marrow cells after PTH or G-CSF in healthy mice; type: in vivo, C57BL/6 mice
Procedure: For the experiments healthy age- and sex-matched (male, 8-12 weeks of age) C57BL/6 mice (Charles River) were used. Animal care and all experimental procedures were performed in strict accordance to the German and National Institutes of Health animal legislation guidelines and were approved by the local animal care and use committees.
as §3
at day 6, 1 ml of peripheral blood was harvested from each mouse by aspirating the carotid artery. Bone marrow cells were obtained by flushing the tibias and femurs from the euthanized mice. Mononuclear cells were separated by density-gradient centrifugation using 1.077 g/mL Histopaque solution (Sigma Chemicals), purified and resuspended in phosphate-buffered saline (PBS) containing 1% bovine serum albumin. Cells were incubated for 40 minutes in the dark at 4° C. with following fluorescein-isothiocyanate (FITC), phycoerythrin (PE), and peridinin-chlorphyll-protein (PerCP) conjugated monoclonal antibodies: CD45-PerCP, C34-FITC, CD31-PE, Sca-1-PE and c-kit-PE (all from BD Pharmingen). Isotype-identical antibodies (BD Pharmingen) served as controls. Cells were analyzed by 3-color flow cytometry using a Coulter® Epics® XL-MCL™ flow cytometer (Beckman Coulter). Each analysis included 20000 events. The absolute number of antigen-positive cells per ml of whole blood was calculated by multiplying the percentage of antigen-positive cells with the total number of mononuclear cells per ml of blood detected by the conventional hematological cell analyzer. The number of lymphocytes together with the number of monocytes comprised the total number of mononuclear cells.

rat PTH (1-34)
maximum LV pressure (myocardial function; PTH treatment of sham operated animals): 80.3±2.1 mmHg
arterial elastance (Ea) (myocardial function; day 6 after MI): 6.1±0.5 mmHg/μl and 6.0 mmHg/μl
cardiac output (myocardial function; day 6 after MI): 5537 µL/min
contractility (myocardial function; day 6 after MI): 4742±394 mmHg/sec
ejection fraction (EF) (myocardial function; day 6 after MI): 30%
stroke work (myocardial function; day 6 after MI): increased
diastolic function (Tau glantz) (myocardial function; day 6 after MI, vs saline): without significant changes
arterial elastance (Ea) (myocardial function; day 30 after MI): 7.2±0.5 mmHg/μl and 7.1 mmHg/μl
cardiac output (myocardial function; day 30 after MI): 3810±205
diastolic relaxation (Tau Glantz) (myocardial function; day 30 after MI): 12.0 ± 0.8 ms
ejection fraction (EF) (myocardial function; day 30 after MI): 29.0±7.1% and 29%
enddiastolic volume (EDV) (myocardial function; day 30 after MI): 34.4±6.1
stroke work (myocardial function; day 30 after MI): 382±59 mmHg×μl
anterior (free LV) wall thickness (infarcted left ventricle; day 6): 0.58 mm
cellular density in the granulation tissue (infarcted left ventricle; day 6): 3317±171 /mm^2
LV-infarct size (area of necrosis and granulation tissue) (infarcted left ventricle): 37%
LV-infarct size (area of necrosis and granulation tissue) (infarcted left ventricle; listed as rPTH(1-34)): 37.3±4.9%
anterior (free LV) wall thickness (infarcted left ventricle; day 30): 0.22 mm
frequency of large LV-aneurysms (infarcted left ventricle; day 30, vs saline): lower frequency
infarct size (area of fibrosis) (infarcted left ventricle; day 30 after LAD occlusion): 23.3±4.6% and 23%
migration of CD45/Sca-1 and CD45/CD34 positive stem cells to the heart [1]: enhanced migration
homing factor SDF-1 in the ischemic myocardium (SDF-1): upregulated
increase of G-CSF serum value (G-CSF; PTH treated mice, ELISA): 2.8 fold
serum level of G-CSF (G-CSF; day 6 of PTH stimulation): 6035.5 ± 1318.4 pg/mL
subtypes of CD45+/CD34- cells in bone marrow ([2]; PTH day 6, G-CSF): significant decrease
subtypes of CD45+CD34+ cells in bone marrow ([2]; PTH day 6 or day 14, G-CSF vs control group): no significant change
